# In US9809521B2, “Cannabidinoid derivatives” (priority 2011, dated 2017):
# Read-outs that look alike come from different tables or passages of the source.
# Assays:
# [1] = system: 4T1 cells; experiment: Cell viability assay; type: cell-based, mouse; details: Mus musculus
# From the text: (§1) The structure of O-1442 and O-1663 are almost identical with the exception of one R group. A smaller subset of the same analogs, including O-1442 and O-1663, were further screened for their ability to inhibit 4T1 breast cancer cell viability in anticipation of running in vivo experiments in immune competent mice (TABLE 5).
# [2] = system: U251 cells; experiment: MTT cell proliferation assay; details: Homo sapiens
# [3] = system: ROS; experiment: ROS measurement in MDA-MB231 cells; type: cell-based, human; details: for generation of ROS: two days, approximate IC50 for CBD and THC
# From the text: In culture, CBD-induced generation of ROS is a primary mechanism that leads to inhibition of cell growth, invasion, and survival across multiple cancers. The generation of ROS by CBD leads to the inhibition of Id-1 expression in breast cancer cells. […] The ability of CBD and the O-1663 CBD analog to stimulate the production of ROS was next compared. […] The involvement of CB2 receptors in the productions of ROS produced by CBD and the O-1663 CBD analog was next investigated.
# [4] = system: MDA-MB231 cells; experiment: Xenograft mouse model of human breast cancer lung metastasis; type: in vivo
# Method: In-vivo metastatic studies using a Xenograph mouse model for human breast cancer with CBD. […] Lung metastases were generated in Nude mice after tail vein injection of 1×10^6 MDA-MB231-luc-D3H2LN cells. One day after the injection, the tumor bearing mice were injected i.p. once a day with vehicle or 0.5 mg/kg and 1 mg/kg CBD for three weeks. Visible lung metastases were then counted and measured by using a dissecting microscope.
# [5] = system: 4T1 cells; experiment: 4T1 i.v. mouse model of breast cancer metastasis, treatment from one day after injection; type: in vivo; details: for total amount of metastatic foci: 1 mg/kg i.p., 2 days after injection; for effect of CB2 receptor antagonist SR14458 on anti-metastatic activity: 14 days
# Method: In-vivo model of breast cancer metastases: 4T1 cells were injected directly into the tail vein of syngeneic BALB/c mice. […] Two days after i.v. injection of 4T1 cells, the tumor bearing mice were injected i.p. once a day with vehicle or compound (1 mg/kg).
# The 4T1 intravenous (i.v.) mouse model of breast cancer metastasis to assess the activity of CBD in vivo was utilized. […] One day after i.v. injection of the breast cancer cells, mice were treated daily for two weeks by intra-peritoneal injection with vehicle (used as a control) or CBD at a dose range of 0.1 to 5 mg/kg.
# A survival study was carried out (FIG. 4, panel C).
# To provide further support for this hypothesis in vivo, mice bearing 4T1 tumors were treated with CBD and the O-1663 CBD analog in the presence of a CB2 receptor antagonist (FIG. 27, panels D and E). […] In addition, a combination treatment with CBD and THC was included.
# In-vivo studies of breast cancer metastases with CBD or O-1663 CBD analog. 4T1 cells were injected into the tail vein of syngeneic BALB/c mice and then were intraperitoneal injected 2 days later with either vehicle, CBD (1 mg/kg), or O-1663 CBD analog (1 mg/kg).
# [6] = system: p8 and LC3; experiment: p8 mRNA and LC3 (autophagy marker) in MDA-MB231 cells; type: cell-based, human; details: two days
# [7] = system: MDA-MB231 cells; experiment: MTT cell proliferation/viability assay; details: for reversal of inhibition of cell viability by CB2 receptor antagonist SR14458: 2 days; for IC50: Homo sapiens
# From the text: as §1
# To directly test whether the O-1663 CBD analog could co-target two distinct cannabinoid antitumor pathways, the effects of CBD and the O-1663 CBD analog on cell viability with multiple antagonists were probed (FIG. 25). […] The ability of the O-1663 CBD analog and CBD to inhibit invasion was next compared (FIG. 25, panel C).
# [8] = system: 4T1 cells; experiment: 4T1 i.v. mouse model, advanced stage metastasis, treatment from day seven; type: in vivo; details: for medium increase in survival: 0.5 or 1 mg/kg daily from seven days after injection
# Method: To determine whether CBD could inhibit the formation of lung tumor foci in more advanced stages of metastasis, mice were treated at a time point where visual lung metastatic foci were already formed (as shown at day seven in FIG. 7, panel A). Mice were injected i.v. with 4T1 cells were kept for one week in order to allow for the formation of visible lung metastatic foci. The mice were then treated with CBD.
# In-vivo late stage metastatic studies using a Xenograph mouse model for human breast cancer with CBD. […] Lung metastases were generated in BALB/c mice after tail vein injection of 20×10^5 mouse 4T1 cells. […] One week after the tail vein injection of 20×10^5 mouse 4T1 cells, the tumor bearing mice were injected i.p. once a day with vehicle or 1 mg/kg and 10 mg/kg CBD for seven days. Visible lung metastases were counted and measured by using a dissecting microscope.
# The activity of CBD and the O-1663 CBD analog to inhibit the formation of lung tumor foci in more advanced stages of metastasis was then compared. Mice were treated at a time point where visual lung metastatic foci were already formed. Mice were injected i.v. with 4T1 cells and kept for one week in order to allow for the formation of visible lung metastatic foci. The mice were then treated with CBD and the O-1663 CBD analog. […] A survival study was then carried out where the activity of CBD to O-1663 CBD analog was compared (FIG. 28, panel C).
# In-vivo advanced stage metastasis survivability studies in a mouse model with CBD or O-1663 CBD analog. To determine whether cannabinoids could inhibit the formation of lung tumor foci in more advanced stages of metastasis, we treated mice at a time point where visual lung metastatic foci were already formed (FIG. 30, panel A). Mice injected tail vein with 4T1 cell were kept for one week in order to allow for the formation of visual lung metastatic foci measuring up to 1 mm. The mice where then treated with drug for two months.
# [9] = system: Id-1; experiment: Quantitative Western analysis of Id-1 protein expression in MDA-MB231 cells; type: cell-based, human; details: for Id-1 expression: 1 μM, both MDA-MB231 and 4T1 cells
# Method: Quantitative Western analysis of Id-1 Expression in MDA-MB231 cells with CBD, Δ^9-THC, or WIN 55,212-2. The ability of CBD to regulate the expression of key genes that control breast cancer cell aggressiveness and invasiveness was determined.
# SAR Analysis of Id-1 expression in MDA-MB231 cells with (Abn)-CBD receptor, Abn-CBD, O-1602, CP55,940, THC, CBN, or CBD. In order to determine the structure activity relationship (“SAR”) between cannabinoids and the inhibition of Id-1, MDA-MB231 cells were treated for two days with multiple cannabinoid compounds and Id-1 protein levels were assessed.
# Quantitative Western analysis of Id-1 expression in MDA-MB231 cells and U251 cells with CBD or O-1663 CBD analog. […] MDA-MB231 breast cancer cells and U251 GBM cells were treated with 1.0 μM of cannabinoid for two days and then analyzed for Id-1 protein expression by quantitative Western analysis.
# [10] = MDA-MB-231, read-out: IC50, MDA-MB231
compound,measurement,setting,value
"C=C(C)[C@@H]1CCC(C)=C[C@H]1c1c(O)cc(CCCCC)cc1O [CBD, cannabidiol]",IC50,"[1]; 4T1, Table 5, read-out: IC50, 4T1 cell viability",1800 nM
same,IC50,"[2]; U-251, 72 h, read-out: CBD IC50, U251",600 nM
same,IC50,"[2]; U-251, read-out: IC50, U251",2900 nM
same,reversal of ROS in the presence of SR14458,[3],small but significant reversal of ROS
same,generation of ROS,[3],robust up-regulation of ROS
same,reduction in the number of metastases,"[4]; MDA-MB231-luc-D3H2LN, 0.5 mg/kg and 1 mg/kg i.p. for three weeks",≥ 70%
same,median increase in survival,[5]; 1 mg/kg daily from one day after injection,seven
same,total amount of metastatic foci,[5],reduction of the total amount of metastatic foci
same,effect of CB2 receptor antagonist SR14458 on anti-metastatic activity,[5]; 1 mg/kg,not affected by co-administration with SR14458
same,inhibition of total breast cancer metastasis,"[5]; i.p. daily two weeks, 0.1 to 5 mg/kg",up to 75%
same,"EC50, total breast cancer metastasis","[5]; i.p. daily two weeks, CI=0.2-0.5",0.3 mg/kg
same,up-regulation of p8 and LC3,[6],did not produce up-regulation of p8 and LC3
same,reversal of inhibition of cell viability by CB1 receptor antagonist,[7]; 4T1 and MDA-MB231 cells,had no effect on reversing the activity of CBD
same,reversal of inhibition of cell viability by ROS scavenger α-TOC,[7]; 4T1 and MDA-MB231 cells,able to reverse the inhibitory effects of CBD
same,reversal of inhibition of cell viability by CB2 receptor antagonist SR14458,[7]; 4T1 and MDA-MB231 cells,not significant
same,IC50,"[7]; MDA-MB-231, 72 h, read-out: IC50, antiproliferative, MDA-MB231",1300 nM
same,IC50,[7]; [10],2200 nM
same,IC50,"[7]; MDA-MB-231, read-out: IC50, MDA-MB231 cell viability",1900 nM
same,reduction in the number of metastases,"[8]; 1 mg/kg and 10 mg/kg i.p. for seven days, from one week after injection",≥ 70%
same,median increase in survival,[8]; 1 mg/kg starting on day seven,only a day
same,growth of established lung metastatic foci,"[8]; 0.5, 1 or 10 mg/kg i.p. for seven days",dose-dependently reduced the growth of established lung metastatic foci
same,medium increase in survival,[8],4 days
same,average median survival,[8]; treatment from one week after injection,38 days
same,Id-1 expression,[9],partial reduction of Id-1 expression
same,inhibition of Id-1 (structure activity relationship),"[9]; 1.5 μM, two days",greatest inhibition of Id-1
same,Id-1 protein expression,"[9]; 0.1, 1.0, 1.5 μM, three days",concentration-dependent inhibition of Id-1 protein expression
same,concentration at which inhibitory effect on Id-1 expression occurred,[9]; three days,≥ 100 nM
CCCCC(C)(C)c1cc(O)c(C2CCC(C3CCCCC3)CC2)c(O)c1 (centres unmarked) [Compound O-1663],IC50,"[1]; 4T1, read-out: IC50, 4T1 cell viability",830 nM
same,IC50,"[2]; U-251, read-out: IC50, U251",530 nM
same,ROS reversed in the presence of SR14458,[3],> 50%
same,generation of ROS,[3],significantly more potent and efficacious than CBD at generating ROS
same,"potency compared with CBD, human MDA-MB231 model of metastasis",[4]; i.p. daily six weeks,more potent than CBD
same,animals with a metastatic foci >2 mm,[5]; 1 mg/kg,one of five animals
same,total amount of metastatic foci,[5],reduction of the total amount of metastatic foci
same,effect of CB2 receptor antagonist SR14458 on anti-metastatic activity,[5]; 1 mg/kg,partially reversed by the antagonist
same,fold more potent than CBD at inhibiting lung metastatic foci>2 mm,"[5]; mouse, in vivo",7.0 fold
same,fold more potent than CBD at inhibiting total metastasis,"[5]; mouse, in vivo",2.3 fold
same,up-regulation of p8 and LC3,[6],able to up-regulate p8 and the marker of autophagy LC3
same,reversal of inhibition of cell viability by CB2 receptor antagonist SR14458,[7]; 4T1 and MDA-MB231 cells,partially reverse the inhibitory effects
same,IC50,[7]; [10],1200 nM
same,"fold more active than CBD, MDA-MB231 cell viability",[7]; second screen,2.2 fold
same,reduction of percent metastasis compared with CBD,[8]; 0.5 and 1 mg/kg,significantly more potent than CBD in reducing percent metastasis
same,medium increase in survival,[8],30 days
same,mice without visible lung metastatic foci,[8]; dissection microscope,20%
same,mice still alive at end of study,"[8]; treatment from day seven, 2 months",50%
same,Id-1 protein expression compared with CBD,"[9]; 1.0 μM, two days, MDA-MB231 and U251 cells",downregulated Id-1 protein expression to a far greater extent than CBD
same,Id-1 expression,[9],almost a complete down-regulation of Id-1 expression
